Structures can show the parent of a compound that is named as a salt.
Biological target: T1, recombinant human secreted phospholipase A2 (Homo sapiens, UniProt P14555)
T1 sequence (P14555 21-144): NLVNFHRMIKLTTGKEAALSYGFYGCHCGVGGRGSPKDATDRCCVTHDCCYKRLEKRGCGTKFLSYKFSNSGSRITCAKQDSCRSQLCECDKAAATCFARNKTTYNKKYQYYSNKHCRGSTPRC
Test: chromogenic assay of recombinant human secreted phospholipase A2 inhibition
Assay type: biochemical
Conditions: diheptanoyl thio-PC substrate, pH 7.5, 40° C. for 30 minutes, absorbance at 405 nanometers, triplicate; read-out: Inhibition of human secreted PLA2 IC50 ± mean deviation
Source text: The following chromogenic assay procedure was used to identify and evaluate inhibitors of recombinant human secreted phospholipase A2. The assay described herein has been adapted for high volume screening using 96 well microtiter plates. A general description of this assay method is found in the article, “Analysis of Human Synovial Fluid Phospholipase A2 on Short Chain Phosphatidylcholine-Mixed Micelles: Development of a Spectrophotometric Assay Suitable for a Microtiterplate Reader”, by Laure J. Reynolds, Lori L. Hughes, and Edward A Dennis, Analytical Biochemistry, 204, pp. 190-197, 1992 (the disclosure of which is incorporated herein by reference):
REACTION BUFFER— • CaCl2.2H2O (1.47 g/L) • KCl (7.455 g/L) • Bovine Serum Albumin (fatty acid free)(1 g/L) • (Sigma A-7030, product of Sigma Chemical Co., St. Louis Mo., USA) • TRIS HCl (3.94 g/L) • pH 7.5 (adjust with NaOH)
ENZYME BUFFER— • 0.05 NaOAc.3H2O, pH 4.5 • 0.2 NaCl • Adjust pH to 4.5 with acetic acid
DTNB—5,5′-dithiobis-2-nitrobenzoic acid
RACEMIC DIHEPTANOYL THIO—PC
racemic 1,2-bis(heptanoylthio)-1,2-dideoxy-sn-glycero-3-phosphorylcholine
TRITON X-100™ prepare at 6.249 mg/ml in reaction buffer to equal […].
A measured volume of racemic dipheptanoyl thio PC supplied in chloroform at a concentration of 100 mg/ml is taken to dryness and redissolved in 10 millimolar
TRITON X-100™ nonionic detergent aqueous solution. Reaction Buffer is added to the solution, then DTNB to give the Reaction Mixture.
The reaction mixture thus obtained contains 1 mM diheptanoly thio-PC substrate, 0.29 mm Triton X-100™ detergent, and 0.12 mm DTMB in a buffered aqueous solution at pH 7.5.
• 1. Add 0.2 ml reaction mixture to all wells; • 2. Add 10 ul test compound (or solvent blank) to appropriate wells, mix 20 seconds; • 3. Add 50 nanograms of sPLA2 (10 microliters) to appropriate wells; • 4. Incubate plate at 40° C. for 30 minutes; • 5. Read absorbance of wells at 405 nanometers with an automatic plate reader.
All compounds were tested in triplicate. Typically, compounds were tested at a final concentration of 5 ug/ml. […] Lack of color development at 405 nanometers evidenced inhibition. Compounds initially found to be active were reassayed to confirm their activity and, if sufficiently active, IC50 values were determined. […] In all cases, % inhibition measured at 405 nanometers generated by enzyme reactions containing inhibitors relative to the uninhibited control reactions was determined. Each sample was titrated in triplicate and result values were averaged for plotting and calculation of IC50 values. IC50 were determined by plotting log concentration versus inhibition values in the range from 10-90% inhibition.

CCc1c(C(=O)C(N)=O)c2c(OCC(=O)NS(=O)(=O)c3ccccc3C)cccc2n1Cc1ccccc1 [Example 4, 1-benzyl-2-ethyl-4-(2-methylbenzenesulfonamidoylmethyloxy)-indole-3-glyoxylamide] and CCc1c(C(=O)C(N)=O)c2c(OCC(=O)NS(=O)(=O)c3ccccc3)cccc2n1Cc1ccccc1 [Example 2, 1-benzyl-2-ethyl-4-benzenesulfonamidoylmethyloxy-indole-3-glyoxylamide] are within 1.5-fold of each other in IC50: 9 nM for the first, 7 nM for the second.

CCc1c(C(=O)C(N)=O)c2c(OCC(=O)NS(=O)(=O)C(F)(F)F)cccc2n1Cc1ccccc1 [Example 3, 1-benzyl-2-ethyl-4-trifluoromethanesulfonamidoylmethyloxy-indole-3-glyoxylamide] and CCc1c(C(=O)C(N)=O)c2c(OCC(=O)NS(C)(=O)=O)cccc2n1Cc1ccccc1 [Example 1, 1-benzyl-2-ethyl-4-methanesulfonamidoylmethyloxy-indole-3-glyoxylamide] are within 1.5-fold of each other in IC50: 17 nM for the first, 12 nM for the second.

CCc1c(C(=O)C(N)=O)c2c(OCC(=O)NS(=O)(=O)c3ccc(CCN)cc3)cccc2n1Cc1ccccc1 [Example 5, 1-benzyl-2-ethyl-4-(4-(2-aminoethyl)benzenesulfonamidoylmethyloxy)-indole-3-glyoxylamide, Hydrochloride Salt] was tested, and the IC50 was 16 nM.

— patent US7026348B2, “Indole sPLA2 inhibitors” (Eli Lilly and Company, priority 1998, dated 2006)
